Target: T1, GLP-1 Receptor (Homo sapiens, UniProt P43220)
T1 construct: host or cells: HEK293/GLP1R/CRE-LUC (HEK293/CRE-Luc stably expressing the GLP-1 receptor)
Assay: GLP-1R agonist cAMP stimulation assay (HEK293/GLP1R/CRE-LUC cells, Cisbio cAMP dynamic 2 kit);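 further: compounds tested in half-log serial dilution, cAMP detected with cAMP-d2 and anti-cAMP cryptate antibody reagents after 1 h at room temperature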
Assay type: cell-based
Settings: HEK293/CRE-Luc cell line stably expressing the GLP-1 Receptor; 1000 cells/well; 30 min at 37° C.; 0.5 mM IBMX, 0.1% BSA; read-out: GLP1R cAMP Stimulation DR: EC50

T1 sequence (P43220 24-463, species assumed): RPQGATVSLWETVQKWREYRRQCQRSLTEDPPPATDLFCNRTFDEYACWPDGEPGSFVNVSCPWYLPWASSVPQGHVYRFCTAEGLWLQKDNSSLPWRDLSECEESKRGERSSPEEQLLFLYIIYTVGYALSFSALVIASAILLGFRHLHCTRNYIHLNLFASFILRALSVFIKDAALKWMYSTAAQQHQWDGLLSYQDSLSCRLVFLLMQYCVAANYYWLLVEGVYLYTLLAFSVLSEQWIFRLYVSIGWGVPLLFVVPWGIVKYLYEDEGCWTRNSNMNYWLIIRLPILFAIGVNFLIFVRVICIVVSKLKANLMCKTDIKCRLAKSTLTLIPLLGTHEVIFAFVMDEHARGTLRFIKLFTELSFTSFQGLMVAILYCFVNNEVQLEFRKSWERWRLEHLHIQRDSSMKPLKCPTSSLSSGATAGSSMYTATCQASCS

Structure (SMILES) | EC50 [nM]
O=C(O)/C=C/c1cnc(CN2CCC(c3cccc(OCc4ccc(Cl)cc4F)n3)CC2)c(CC2CCCO2)c1 (centres unmarked) [Compound 128, (E)-3-(6-((4-(6-((4-chloro-2-fluorobenzyl)oxy)pyridin-2-yl)piperidin-1-yl)methyl)-5-((tetrahydrofuran-2-yl)methyl)pyridin-3-yl)acrylic acid] | 48.9
Cc1cc(-c2nnc(C(F)(F)F)[nH]2)cnc1CN1CCC(c2cccc3c2OC(C)(c2ccc(Cl)cc2F)O3)CC1 (centres unmarked) [Compound 255, 2-({4-[2-(4-chloro-2-fluorophenyl)-2-methyl-2H-1,3-benzodioxol-4-yl]piperidin-1-yl}methyl)-3-methyl-5-[5-(trifluoromethyl)-4H-1,2,4-triazol-3-yl]pyridine] | 8.3
COCCn1c(CN2CCC(c3cccc(OCc4ccc(Cl)cc4F)n3)CC2)nnc1C(C)=CC(=O)O [Compound 235, 3-(5-((4-(6-((4-chloro-2-fluorobenzyl)oxy)pyridin-2-yl)piperidin-1-yl)methyl)-4-(2-methoxyethyl)-4H-1,2,4-triazol-3-yl)but-2-enoic acid] | 10
CC1(c2ccc(Cl)cc2F)Oc2cccc(C3CCN(Cc4ncc(/C=C/C(=O)O)n4CCS(C)(=O)=O)CC3)c2O1 (centres unmarked) [Compound 161, (E)-3-(2-((4-(2-(4-chloro-2-fluorophenyl)-2-methylbenzo[d][1,3]dioxol-4-yl)piperidin-1-yl)methyl)-1-(2-(methylsulfonyl)ethyl)-1H-imidazol-5-yl)acrylic acid] | 0.18
CC1(c2ccc(Cl)cc2F)Oc2cccc(C3CCN(Cc4ncc(/C=C/C(=O)O)n4C[C@@H]4CCCO4)CC3)c2O1 (stereo partly drawn) [Compound 140a, (E)-3-(2-((4-(2-(4-chloro-2-fluorophenyl)-2-methylbenzo[d][1,3]dioxol-4-yl)piperidin-1-yl)methyl)-1-(((S)-tetrahydrofuran-2-yl)methyl)-1H-imidazol-5-yl)acrylic acid] | 0.09
CC1(c2ccc(Cl)cc2F)Oc2cccc(C3CCN(Cc4ncc(/C=C/C(=O)O)n4Cc4ccccc4)CC3)c2O1 (centres unmarked) [Compound 151, (E)-3-(1-benzyl-2-((4-(2-(4-chloro-2-fluorophenyl)-2-methylbenzo[d][1,3]dioxol-4-yl)piperidin-1-yl)methyl)-1H-imidazol-5-yl)acrylic acid] | 0.043
CCOCCn1c(/C=C/C(=O)O)cnc1CN1CCC(c2cccc3c2OC(C)(c2ccc(Cl)cc2F)O3)CC1 (centres unmarked) [Compound 197, (E)-3-(2-((4-(2-(4-chloro-2-fluorophenyl)-2-methylbenzo[d][1,3]dioxol-4-yl)piperidin-1-yl)methyl)-1-(2-ethoxyethyl)-1H-imidazol-5-yl)acrylic acid] | 0.019
COCCc1cc(-c2nnc(C(F)(F)F)[nH]2)cnc1CN1CCC(c2cccc3c2OC(C)(c2ccc(Cl)cc2)O3)CC1 (centres unmarked) [Compound 261, 2-({4-[2-(4-chlorophenyl)-2-methyl-2H-1,3-benzodioxol-4-yl]piperidin-1-yl}methyl)-3-(2-methoxyethyl)-5-[5-(trifluoromethyl)-4H-1,2,4-triazol-3-yl]pyridine] | 5.3
C[C@H]1CN(c2cccc3c2OC(C)(c2ccc(Cl)cc2F)O3)CCN1Cc1ncc(/C=C/C(=O)O)n1C[C@@H]1CCO1 (stereo partly drawn) [Compound 180, (E)-3-(2-(((2S)-4-(2-(4-chloro-2-fluorophenyl)-2-methylbenzo [d][1,3]dioxol-4-yl)-2-methylpiperazin-1-yl)methyl)-1-(((S)-oxetan-2-yl)methyl)-1H-imidazol-5-yl)acrylic acid] | 0.026
CCOCCc1cc(-c2nnc(C(F)(F)F)[nH]2)cnc1CN1CCC(c2cccc3c2O[C@@](C)(c2ccc(Cl)cc2F)O3)CC1 [Compound 287, 2-({4-[(2S)-2-(4-chloro-2-fluorophenyl)-2-methyl-2H-1,3-benzodioxol-4-yl]piperidin-1-yl}methyl)-3-(2-ethoxyethyl)-5-[5-(trifluoromethyl)-4H-1,2,4-triazol-3-yl]pyridine] | 0.87
C/C(=C\c1cnc(CN2CCC(c3cccc4c3OC(c3ccc(Cl)cc3F)O4)CC2)n1C[C@@H]1CCO1)C(=O)O (stereo partly drawn) [Compound 132a, (E)-3-(2-((4-(2-(4-chloro-2-fluorophenyl)benzo[d][1,3]dioxol-4-yl)piperidin-1-yl)methyl)-1-((S)-oxetan-2-ylmethyl)-1H-imidazol-5-yl)-2-methylacrylic acid] | 1.6
CCn1cncc1Cn1c(/C=C/C(=O)O)cnc1CN1CCC(c2cccc3c2O[C@](C)(c2ccc(Cl)cc2F)O3)CC1 [Compound 139b, (R,E)-3-(2-((4-(2-(4-chloro-2-fluorophenyl)-2-methylbenzo[d][1,3]dioxol-4-yl)piperidin-1-yl)methyl)-1-((1-ethyl-1H-imidazol-5-yl)methyl)-1H-imidazol-5-4)acrylic acid] | 0.2
COCCc1cc(-c2nnc(C(F)(F)F)[nH]2)cnc1CN1CCC(c2cccc3c2O[C@@](C)(c2ccc(Cl)cc2F)O3)CC1 [Compound 259, 2-({4-[(2S)-2-(4-chloro-2-fluorophenyl)-2-methyl-2H-1,3-benzodioxol-4-yl]piperidin-1-yl}methyl)-3-(2-methoxyethyl)-5-[5-(trifluoromethyl)-4H-1,2,4-triazol-3-yl]pyridine] | 0.53
O=C(O)/C=C/c1cnc(CN2CCC(c3cccc(OCc4ccc(Cl)cc4F)n3)CC2)n1C[C@@H]1CCO1 [Compound 103a, (S,E)-3-(2-((4-(6-((4-chloro-2-fluorobenzyl)oxy)pyridin-2-yl)piperidin-1-yl)methyl)-1-(oxetan-2-ylmethyl)-1H-imidazol-5-yl)acrylic acid] | 0.093
COCCn1c(/C=C/C(=O)O)nnc1CN1CCC(c2cccc(OCc3ccc(Cl)cc3F)n2)CC1 [Compound 223, (E)-3-(5-((4-(6-((4-chloro-2-fluorobenzyl)oxy)pyridin-2-yl)piperidin-1-yl)methyl)-4-(2-methoxyethyl)-4H-1,2,4-triazol-3-yl)acrylic acid] | 0.47
CCn1cncc1Cn1c(CCC(=O)O)cnc1CN1CCC(c2cccc3c2OC[C@@H](c2ccc(Cl)cc2)O3)CC1 [Compound 245, (R)-3-(2-((4-(2-(4-chlorophenyl)-2,3-dihydrobenzo [b][1,4]dioxin-5-yl)piperidin-1-yl)methyl)-1-((1-ethyl-1H-imidazol-5-yl)methyl)-1H-imidazol-5-yl)propanoic acid] | 0.15
O=C(O)CCc1ccc(CN2CCC(c3cccc(OCc4ccc(Cl)cc4F)n3)CC2)c(=O)[nH]1 [Compound 121, 3-(5-((4-(6-((4-chloro-2-fluorobenzyl)oxy)pyridin-2-yl)piperidin-1-yl)methyl)-6-oxo-1,6-dihydropyridin-2-yl)propanoic acid] | > 1000
C[C@]1(c2ccc(Cl)cc2F)Oc2cccc(C3CCN(Cc4ncc(/C=C/C(=O)O)n4C[C@H]4CCOC4)CC3)c2O1 [Compound 155, (E)-3-(2-((4-((S)-2-(4-chloro-2-fluorophenyl)-2-methylbenzo[d][1,3]dioxol-4-yl)piperidin-1-yl)methyl)-1-(((R)-tetrahydrofuran-3-yl)methyl)-1H-imidazol-5-yl)acrylic acid] | 0.0054
CC1(c2ccc(Cl)cc2F)Oc2cccc(N3CCN(Cc4ncc(/C=C/C(=O)O)n4C[C@@H]4CCO4)CC3)c2O1 (stereo partly drawn) [Compound 179, (E)-3-(2-((4-(2-(4-chloro-2-fluorophenyl)-2-methylbenzo[d][1,3]dioxol-4-yl)piperazin-1-yl)methyl)-1-(((S)-oxetan-2-yl)methyl)-1H-imidazol-5-yl)acrylic acid] | 0.036
O=C(O)/C=C/c1nnc(CN2CCC(c3cccc(OCc4ccc(Cl)cc4F)n3)CC2)n1CC1CCC1 [Compound 229, (E)-3-(5-((4-(6-((4-chloro-2-fluorobenzyl)oxy)pyridin-2-yl)piperidin-1-yl)methyl)-4-(cyclobutylmethyl)-4H-1,2,4-triazol-3-yl)acrylic acid] | 2.7
C[C@]1(c2ccc(Cl)cc2F)Oc2cccc(C3CCN(Cc4ncc(-c5nnc(C(F)(F)F)[nH]5)cc4C4CCOC4)CC3)c2O1 (stereo partly drawn) [Compound 282, 2-({4-[(2S)-2-(4-chloro-2-fluorophenyl)-2-methyl-2H-1,3-benzodioxol-4-yl]piperidin-1-yl}methyl)-3-(oxolan-3-yl)-5-[5-(trifluoromethyl)-4H-1,2,4-triazol-3-yl]pyridine] | 3.7
Cc1cc(-c2n[nH]c(=O)o2)cnc1CN1CCC(c2cccc3c2OC(C)(c2ccc(Cl)cc2F)O3)CC1 (centres unmarked) [Compound 254, 5-[6-({4-[2-(4-chloro-2-fluorophenyl)-2-methyl-2H-1,3-benzodioxol-4-yl]piperidin-1-yl}methyl)-5-methylpyridin-3-yl]-2,3-dihydro-1,3,4-oxadiazol-2-one] | 10
Cc1ncoc1Cn1c(/C=C/C(=O)O)cnc1CN1CCC(c2cccc3c2OC(C)(c2ccc(Cl)cc2F)O3)CC1 (centres unmarked) [Compound 190, (E)-3-(2-((4-(2-(4-chloro-2-fluorophenyl)-2-methylbenzo[d][1,3]dioxol-4-yl)piperidin-1-yl)methyl)-1-((4-methyloxazol-5-yl)methyl)-1H-imidazol-5-yl)acrylic acid] | 0.012
CCc1ncsc1Cn1c(/C=C/C(=O)O)cnc1CN1CCC(c2cccc3c2OC(C)(c2ccc(Cl)cc2F)O3)CC1 (centres unmarked) [Compound 188, (E)-3-(2-((4-(2-(4-chloro-2-fluorophenyl)-2-methylbenzo[d][1,3]dioxol-4-yl)piperidin-1-yl)methyl)-1-((4-ethylthiazol-5-yl)methyl)-1H-imidazol-5-yl)acrylic acid] | 0.22
COCCn1c(/C(F)=C/C(=O)O)cnc1CN1CCC(c2cccc(OCc3ccc(Cl)cc3F)n2)CC1 [Compound 221, (Z)-3-(2-((4-(6-((4-chloro-2-fluorobenzyl)oxy)pyridin-2-yl)piperidin-1-yl)methyl)-1-(2-methoxyethyl)-1H-imidazol-5-yl)-3-fluoroacrylic acid] | 0.56
COCC/C(=C\c1cnc(CN2CCC(c3cccc(OCc4ccc(Cl)cc4F)n3)CC2)n1C[C@@H]1CCO1)C(=O)O [Compound 216a, (S,E)-2-((2-((4-(6-((4-chloro-2-fluorobenzyl)oxy)pyridin-2-yl)piperidin-1-yl)methyl)-1-(oxetan-2-ylmethyl)-1H-imidazol-5-yl)methylene)-4-methoxybutanoic acid] | 4.4

— patent publication US11897851B2, “Heterocyclic GLP-1 agonists” (Gasherbrum Bio, Inc., priority 2021, dated 2024)
